Measured values: patent publication US11760744B2, “Fused ring compounds” (Genentech, Inc., priority 2018, dated 2023)

Legend:
K-Ras G12C [1] = target: T1, K-Ras G12C (Homo sapiens, UniProt P01116, G12C); assay: Western blot assay for in cell alkylation of K-Ras G12C (HCC1171 cells); format: cell-based; design: endogenous in cells; host or cells: HCC1171; conditions: 18 hours at 37° C., 7 point dose response
Procedure: Western Blot Assay for in Cell Alkylation of K-Ras G12C
HCC1171 cells were maintained in RPMI1640 supplemented with 10% FBS. Cells were plated in a 96-well plate at 20,000 cells/well and the following day compounds were added to the cells. After 18 hours at 37° C., cells were lysed in RIPA buffer (Sigma R0278) with 0.5% SDS and protease/phosphatase inhibitor cocktail. After through mixing to enable complete lysis, the lysates were cleared by centrifugation before 20 μl was transferred from each well and combined with loading buffer and reducing agent. After heating for 10 minutes at 95° C., 15 μl of each sample was loaded onto a 4-20% Tris-Glycine gel and electrophoresed at 110V for 165 minutes in SDS-PAGE running buffer. Gels were transferred to a nitrocellulose membrane, blocked for 1 hour and stained overnight at 4° C. with primary antibody against K-Ras (polyclonal Proteintech 12063-1-AP). The membrane was then washed thoroughly and counterstained with anti-rabbit IRDye 800CW (LI-COR 926-32211) for one hour at room temperature. After final washes, the membrane was imaged on a LI-COR Odyssey CLx at medium resolution. Alkylated K-Ras was visible by an electrophoretic shift from unmodified K-Ras. To quantify this affect, the LICOR software was used to draw a rectangle over alkylated and unalkylated bands for each well and measured the total fluorescent intensity (FI) in each of these bands. The following formula was then used to calculate % alkylation: FI(alkylated)/(FI(alkylated)+FI(unalkylated))*100 for each well.
A 7 point dose response curve was used to determine the IC50 for each compound. Cell alkylation data are presented below in Table 2.
Target sequence in this assay (P01116 1-188 isoform P01116-2 G12C): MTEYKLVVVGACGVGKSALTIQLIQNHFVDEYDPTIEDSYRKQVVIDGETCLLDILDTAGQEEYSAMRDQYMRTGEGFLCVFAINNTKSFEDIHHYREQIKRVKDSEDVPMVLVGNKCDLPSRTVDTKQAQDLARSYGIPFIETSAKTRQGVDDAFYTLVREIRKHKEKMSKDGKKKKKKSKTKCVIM

K-Ras G12C [2] = target: T1, K-Ras G12C; assay: K-Ras G12C, SOS1, Raf RBD HTRF assay for inhibition of GTP exchange; format: biochemical; design: K-Ras G12C (residues 2-188) and SOS1 (residues 564-1049) had N-terminal 6-His; made in house; host or cells: E. coli; conditions: 18 hours preincubation with K-Ras G12C at room temperature; SOS1-mediated GTP exchange
Procedure: K-Ras G12C, SOS1, Raf RBD Homogeneous Time Resolved Fluorescence (HTRF) Assay for Inhibition of GTP Exchange
After 18 hours at room temperature, the SOS1 GTP exchange factor (1.67 nM during exchange, 1.25 nM final) was added to initiate nucleotide exchange to GTP (200 μM during exchange, 150 μM final). The level of GTP exchange was assessed by addition of a Ras binding domain derived from C-Raf and the HTRF detection antibodies Tb-anti-FLAG and D2-anti-his (Cis-Bio) at 50 nM, 1 nM and 12.5 nM, respectively. After 2 hours, the ratio of 665 nm to 615 nm emission with 320 nm excitation was measured on an Envision plate reader (Perkin Elmer).
The final reaction volume was 20 μl in a ProxiPlate-384F Plus (Perkin Elmer), in buffer containing 20 mM HEPES, 150 mM NaCl, 1 mM MgCl2, 0.1% BSA, 0.03% Tween-20 and 1 mM DTT. […] HTRF data are presented below in Table 2.
Target sequence in this assay (P01116 2-188 isoform P01116-2 G12C): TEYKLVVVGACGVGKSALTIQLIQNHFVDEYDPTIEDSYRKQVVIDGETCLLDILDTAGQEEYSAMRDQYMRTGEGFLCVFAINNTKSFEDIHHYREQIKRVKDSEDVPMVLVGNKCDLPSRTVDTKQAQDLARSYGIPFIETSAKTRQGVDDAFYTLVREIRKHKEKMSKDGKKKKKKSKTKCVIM

Compound | EC50 (K-Ras G12C [1]) | IC50 (K-Ras G12C [2])
C=CC(=O)N1CCN(c2ncnc3c2C[C@@H](C)[C@H](c2c(C)ccc4[nH]ncc24)C3)CC1 (single isomer, unassigned) [Example 15a] | 430 nM | 68 nM
C=CC(=O)N1CCN(c2ncnc3c2C[C@H](C)[C@@H](c2c(C)ccc4[nH]ncc24)C3)CC1 (single isomer, unassigned) [Example 15b] | 30000 nM | 8600 nM
CNC/C=C/C(=O)N1CCN(c2ncnc3c2C[C@@H](C)[C@H](c2c(C)ccc4[nH]ncc24)C3)CC1 (single isomer, unassigned) [Example 19a] | 12000 nM | 930 nM
C=CC(=O)N1CCN(c2nc(OC[C@@H]3CCCN3C)nc3c2C[C@H](C)[C@@H](c2nc(N)cc(C)c2C(F)(F)F)C3)CC1 (single isomer, unassigned) [Example 20b] | 2100 nM | 1400 nM
C=CC(=O)N1CCN(c2nc(OC[C@@H]3CCCN3C)nc3c2C[C@H](C)[C@@H](c2nc(N)cc(C)c2C(F)(F)F)C3)[C@@H](C)C1 (single isomer, unassigned) [Example 21a] | 2300 nM | 1100 nM
C=CC(=O)N1CCN(c2nc(OC[C@@H]3CCCN3C)nc3c2C[C@H](C)[C@@H](c2cc(O)cc4ccccc24)C3)[C@@H](C)C1 (single isomer, unassigned) [Example 22a] | 100 nM | 20 nM
C=CC(=O)N1CCN(c2nc(OC[C@@H]3CCCN3C)nc3c2C[C@H](C)[C@@H](c2c(C(F)(F)F)ccc(N)c2F)C3)[C@@H](C)C1 (single isomer, unassigned) [Example 23a] | 1000 nM | 720 nM
C=CC(=O)N1CCN(c2nc(OC[C@@H]3C[C@@H](F)CN3C)nc3c2C[C@@H](C)[C@H](c2nc(N)cc(C)c2C2CC2)C3)[C@@H](C)C1 (single isomer, unassigned) [Example 24b] | 490 nM | 21 nM
C=CC(=O)N1CCN(c2ncnc3c2CC[C@H](c2c(F)c(N)cc(C)c2C(F)(F)F)C3)CC1 (single isomer, unassigned) [Example 27a] | 340 nM | 89 nM
C=CC(=O)N1CCN(c2nc(OC[C@@H]3CCCN3C)nc3c2CC[C@@H](c2cc(O)cc4ccccc24)C3)[C@@H](C)C1 (single isomer, unassigned) [Example 28a] | 1000 nM | 130 nM
C=CC(=O)N1CCN(c2nc(OC[C@@H]3CCCN3C)nc3c2CCC(c2cc(O)cc4ccccc24)C3)[C@@H](CO)C1 (single isomer, unassigned) [Example 29a] | 9300 nM | 530 nM
C=CC(=O)N1CCN(c2nc(OC[C@@H]3CCCN3C)nc3c2CCC(c2cc(O)cc4ccccc24)C3)[C@@H](CO)C1 (single isomer, unassigned) [Example 29b] | 330 nM | < 10 nM
C=CC(=O)N1CCN(c2nc(OC[C@@H]3C[C@H](F)CN3C)nc3c2CC[C@H](c2cc(O)cc4ccccc24)C3)[C@@H](C)C1 (single isomer, unassigned) [Example 30a] | 40 nM | 11 nM
C=CC(=O)N1CCN(c2nc(OC[C@@H]3C[C@@H](F)CN3C)nc3c2CC[C@@H](c2cc(O)cc4ccccc24)C3)[C@@H](C)C1 (single isomer, unassigned) [Example 31b] | 2000 nM | 250 nM
C=CC(=O)N1C[C@H](C)N(c2nc(OC[C@@H]3CCCN3C)nc3c2C[C@@H](C)[C@H](c2cc(O)cc4ccccc24)C3)[C@@H](C)C1 (single isomer, unassigned) [Example 32a] | 120 nM | < 10 nM
C=CC(=O)N1C[C@H](C)N(c2nc(OC[C@@H]3CCCN3C)nc3c2C[C@H](C)[C@@H](c2cc(O)cc4ccccc24)C3)[C@@H](C)C1 (single isomer, unassigned) [Example 32b] | 920 nM | 56 nM
C=CC(=O)N1CCN(c2nc(OC[C@@H]3CCCN3C)nc3c2C[C@@H](C(C)C)[C@H](c2nc(N)cc(C)c2C(F)(F)F)C3)[C@@H](C)C1 (single isomer, unassigned) [Example 33a] | 51 nM | < 10 nM

Compound | EC50 (K-Ras G12C [1]) | IC50 (K-Ras G12C [2])
C=CC(=O)N1CCN(c2nc(OC[C@@H]3CCCN3C)nc3c2C[C@H](C(C)C)[C@@H](c2nc(N)cc(C)c2C(F)(F)F)C3)[C@@H](C)C1 (single isomer, unassigned) [Example 33b] | 2200 nM | 300 nM
C=C(F)C(=O)N1CCN(c2nc(OC[C@@H]3CCCN3C)nc3c2CC(C)C(c2c(F)c(N)cc(C)c2C(F)(F)F)C3)CC1CC#N (single isomer, unassigned) [Example 34a] | > 3000 nM | 8900 nM
C=C(F)C(=O)N1CCN(c2nc(OC[C@@H]3CCCN3C)nc3c2C[C@H](C)[C@@H](c2c(F)c(N)cc(C)c2C(F)(F)F)C3)C[C@H]1CC#N (single isomer, unassigned) [Example 34b] | 1200 nM | 680 nM
C=CC(=O)N1CCN(c2nc(OC[C@@H]3CCCN3C)nc3c2C[C@H](C)[C@@H](c2cccc4c2CCC4)C3)C[C@H]1CC#N (single isomer, unassigned) [Example 35a] | 550 nM | 190 nM
C=CC(=O)N1CCN(c2nc(OC[C@@H]3CCCN3C)nc3c2C[C@H](C)[C@@H](c2cccc4c2CCC4)C3)C[C@@H]1CC#N (single isomer, unassigned) [Example 35c] | 46 nM | 22 nM
C=CC(=O)N1CCN(c2nc(OC[C@@H]3C[C@@H](F)CN3C)nc3c2C[C@H](C)[C@@H](c2c(F)c(N)cc(C)c2C(F)(F)F)C3)[C@@H](C)C1 (single isomer, unassigned) [Example 36a] | 270 nM | 360 nM
C=CC(=O)N1CCN(c2nc(OC[C@@H]3C[C@@H](F)CN3C)nc3c2C[C@H](CC)[C@@H](c2c(F)c(N)cc(C)c2C(F)(F)F)C3)[C@@H](C)C1 (single isomer, unassigned) [Example 37b] | 1000 nM | 2200 nM
C=C(F)C(=O)N1CCN(c2nc(OC[C@@H]3C[C@@H](F)CN3C)nc3c2C[C@H](C)[C@@H](c2c(F)c(N)cc(C)c2C(F)(F)F)C3)C[C@H]1CC#N (single isomer, unassigned) [Example 38a] | 1000 nM | 3600 nM
C=C(F)C(=O)N1CCN(c2nc(OC[C@@H]3C[C@@H](F)CN3C)nc3c2C[C@H](C)[C@@H](c2c(F)c(N)cc(C)c2C(F)(F)F)C3)C[C@@H]1CC#N (single isomer, unassigned) [Example 38d] | 1000 nM | 1700 nM
C#CC[C@H]1CN(c2nc(OC[C@@H]3CCCN3C)nc3c2C[C@@H](C)[C@H](c2cccc4c2CCC4)C3)CCN1C(=O)C=C (single isomer, unassigned) [Example 40a] | 100 nM | < 10 nM
C#CC[C@H]1CN(c2nc(OC[C@@H]3CCCN3C)nc3c2C[C@H](C)[C@@H](c2cccc4c2CCC4)C3)CCN1C(=O)C=C (single isomer, unassigned) [Example 40b] | 1000 nM | 560 nM
C#CC[C@@H]1CN(c2nc(OC[C@@H]3CCCN3C)nc3c2C[C@H](C)[C@@H](c2cccc4c2CCC4)C3)CCN1C(=O)C=C (single isomer, unassigned) [Example 40c] | 1000 nM | 1200 nM
C#CC[C@@H]1CN(c2nc(OC[C@@H]3CCCN3C)nc3c2C[C@@H](C)[C@H](c2cccc4c2CCC4)C3)CCN1C(=O)C=C (single isomer, unassigned) [Example 40d] | 1000 nM | 29 nM
C=CC(=O)N1CCN(c2nc(OC[C@@H]3CCCN3C)nc3c2C[C@H](C)[C@@H](c2nc(N)ccc2C(F)(F)F)C3)[C@@H](C)C1 (single isomer, unassigned) [Example 41a] | 880 nM | 500 nM
C=CC(=O)N1CCN(c2ncnc3c2C[C@@H](C)[C@H](c2nc(N)ccc2C(F)(F)F)C3)CC1 (single isomer, unassigned) [Example 42b] | 360 nM | 67 nM
C=CC(=O)N1CCN(c2ncnc3c2CC[C@@H](c2cncc4ccccc24)C3)CC1 (single isomer, unassigned) [Example 44a] | 1000 nM | > 50000 nM
